Experiments:
[1] = tested on: carrageenin-induced inflammation; assay: carrageenin-induced inflammation, right hind paw swelling by volumetry; format: in vivo, rats; details: Example 7, Fig. 6
Description: Six groups each consisting of five male SD rats weighing 180 to 220 g were used (total 30 rats), and each rat was measured for a size of the subplantar region1 of the right hind paw.
In order to induce carrageenin-induced inflammation, 0.1 ml/rat of a physiological saline solution of 1 % X-carrageenin was prepared.
One out of the six groups was used as Control group. A physiological saline solution of 10 % Nikkol was administered intraperitoneally to each rat of this group, and 0.5 hours after the administration of the physiological saline solution of 10 % Nikkol, 0.1 ml of the physiological saline solution of 1 % X-carrageenin was administered intracutaneously into the subplantar region of the right hind paw of each rat. Then, 0.5, 1, 2, 3 and 4 hours after the administration of […] of the physiological saline solution of 1 % X-carrageenin, the swelling on the subplantar region of the right hind paw of each rat was measured by volumetry, arid the average of swelling ratios of the group in every measurement was determined on the basis of the measurement values of the sizes of subplantar regions of the right hind paws of the rats obtained before the administration of the physiological saline solution of 10 % Nikkol solution.
(§1) The procedure for Control group was repeated except that a physiological saline solution of 10 % Nikkol containing VIE-MAN in place of the physiological saline solution of 10 % Nikkol was administered intraperitoneally in such a dose that the amount of VIE-MAN was 10 mg/kg.
The procedure for Control group was repeated except that a physiological saline solution of 10 % Nikkol containing VIE-MAN in place of the physiological saline solution of 10 % Nikkol was administered intraperitoneally in such a dose that the amount of VIE-MAN was 30 mg/kg.
The procedure for Control group was repeated except that a physiological saline solution of 10 % Nikkol containing VIE-MAN in place of the physiological saline solution of 10 % Nikkol was administered intraperitoneally in such a dose that the amount of VIE-MAN was 100 mg/kg.
(§2) The procedure for Example groups ⑭, ⑮ and ⑯ was repeated except that a physiological saline solution of 10 % Nikkol containing cortisone acetate which was a steroidal anti-inflammatory preparation (immunosuppressive preparation) in place of the physiological saline solution of 10 % Nikkol containing VIE-MAN was administered intraperitoneally in such a dose that the amount of the cortisone acetate was 10 mg/kg.
as §2, with “indomethacin” for “cortisone acetate”, “nonsteroidal” for “steroidal”, “(antipyretic analgesic antiphlogistic” for “(immunosuppressive”

[2] = tested on: delayed-type hypersensitivity; assay: picryl chloride-induced delayed-type hypersensitivity, ear swelling ratio; format: in vivo, mice; details: Example 1, Fig. 1; VIE-MAN 10, 30, 100 mg/kg/day versus methotrexate 1 mg/kg/day, intraperitoneally
Description: 76 Male mice (C57BU6Ncrj) weighing 18 to 20 g were used. The abdominal portion of each mouse was shaved such that the shaved portion was about 1 cm^2. Thereafter, 20 µl of an ethanol solution of 7 % picryl chloride was applied to the shaved portions for sensitization.
Eighteen out of the 76 mice were used as Control group. A physiological saline solution containing 10 % Nikkol (Nikkol: trade name, dissolving aid, supplied by Nikko Chemical Co., Ltd.) was administered intraperitoneally to the 18 mice for the consecutive 5 days after the sensitization, and ear thickness of each of these 18 mice was measured on the eighth day after the sensitization. Thereafter, 20 µl of an olive oil solution of 1 % picryl chloride was applied to the ear of each of the mice to cause delayed-type hypersensitivity.
The above pharmaceutical solutions were administered intraperitoneally at the above-described doses for the five consecutive days after the sensitization, and ear thickness of each of these mice was measured on the eighth day after the sensitization. Thereafter, 20 µl of an olive oil solution of 1 % picryl chloride was applied to the ear of each of the mice to cause delayed-type hypersensitivity.
24 Hours after the delayed-type hypersensitivity was induced, the swelling of the ear of each of the mice of Control group and Example groups ①, ②and③ was measured with a dial thickness gauge. On the basis of the values of the ear thickness measured before the application of the olive oil solution of 1 % picryl chloride, the swelling ratio of each of Example groups ①, ② and ③ and Control group was determined.
And, the swelling ratio of the mice was determined.
At first, the abdominal portion of each of forty ICR male mice weighing 20 to 25 g was shaved such that the shaved portion was about 1 cm^2. Thereafter, 20 µl of an ethanol solution of 7 % picryl chloride was applied to the shaved portions for sensitization.

IgE antibody = format: in vivo, rats
Description: At first, 20 male SD rats weighing 180 to 220 g were prepared. Egg-white albumin in an amount of 1 mg per rat was prepared as an antigen to induce the IgE antibody-antigen mediating immune response. Further, a mixture of 20 mg/rat of aluminum hydroxide with 0.6 mi/rat of pertussis vaccine was prepared as an immune aid (adjuvant).
Then, the above antigen and the above adjuvant were equally administered intracutaneously into the four footpads of each rat for sensitization.
24 Hours after the sensitization, the footpad swelling of each rat was measured by volumetry to determine the swelling ratio (unit: %). Then, the rats were separated into four groups each consisting of 5 rats such that the average swelling ratio of one group was nearly equal to that of another group.
Thereafter, one of the four groups was used as Control group, and a physiological saline solution of 10 % Nikkol (trade name, dissolving aid, supplied by Nikko Chemical Co., Ltd.) was administered intraperitoneally to each rat for the 11 consecutive days after the group separation, and on 15th day after the group separation, the serum of each rat was collected, and measured for an IgE antibody amount by means of a 48-hour homologous PCA reaction (passive cutaneous anaphylaxis reaction) as an index. In addition, the IgE antibody amount is shown in terms of a maximum dilution (unit: %) of serum showing positive reaction (blue spot having a diameter of not less than 5 mm).
Two groups of the remaining three groups were used as Example groups ⑥ and 0. A physiological saline solution of 10 % Nikkol containing VIE-MAN was administered intraperitoneally to each rat of Example group ⑥ in such a dose that the amount of VIE-MAN was 30 mg/kg/day for 11 days after the group separation. And, a physiological saline solution of 10 % Nikkol containing VIE-MAN was administered intraperitoneally to each rat of Example group 0 every other day (number of days for administration: 6 days) in such a dose that the amount of VIE-MAN was 100 mg/kg/day for 11 days after the group separation. Then, on 15th day after the group separation, the serum of each rat was collected, and measured for an IgE antibody amount in the same manner as that for Control group.
One remaining group of the four groups was used as Comparative Example group @. A physiological saline solution of 10 % Nikkol containing hydrocortisone which was an adrenocortical hormone preparation was administered intraperitoneally to each rat in such a dose that the amount of the hydrocortisone was 10 mg/kg/day for the consecutive 11 days after the group separation. Then, on 15th day after the group separation, the serum of each rat was collected, and measured for an IgE antibody amount in the same manner as that for Example groups 6 and ⑦.

[3] = tested on: antigen-adjuvant-induced inflammation; assay: antigen-adjuvant-induced inflammation, right hind paw swelling by volumetry; format: in vivo, rats; details: 10 mg/kg intraperitoneally
Description: (§3) At first, five groups each consisting of five SD male rats weighing 180 to 220 g (total 25 rats) were prepared, and each rat was measured for a size of the subplantar region of the right hind paw. As an antigen to cause an antigen-adjuvant-induced inflammation, 0.2 mg/rat of egg-white albumin was used. Further, as an immune aid (adjuvant), a mixture consisting of 4 mg/rat of aluminum hydroxide and 0.1 ml/rat of pertussis vaccine was prepared.
One out of the five groups was used as Control group. A physiological saline solution of 10 % Nikkol (trade name, dissolving aid, supplied by Nikko Chemical Co., Ltd.) was administered intraperitoneally to each rat, and 0.5 hour after the administration of the physiological saline solution of 10 % Nikkol, the above antigen and adjuvant were administered intracutaneously into the subplantar region of the right hind paw. Then, 0.5, 1, 2, 4, 6, 12 and 24 hours after the administration of the antigen and adjuvant, the swelling on the subplantar region of the right hind paw of each rat was measured by volumetry. And, the average of swelling ratios of the group in every measurement was determined on the basis of the measurement values of the sizes of subplantar regions of the right hind paws of the rats obtained before the administration of the physiological saline solution of 10 % Nikkol.
One of the remaining four groups was used as Example group @. A physiological saline solution of 10 % Nikkol containing VIE-MAN was administered intraperitoneally into each rat of this group in such a dose that the amount of VIE-MAN was 10 mg/kg, and 0.5 hours after the administration of the physiological saline solution of 10 % Nikkol containing VIE-MAN, the above antigen and adjuvant were administered intracutaneously into the subplantar region of the right hind paw. Thereafter, the swelling on the subplantar region of the right hind paw of each rat was measured in the same manner as that for Control group, and the average of swelling ratios of the group in every measurement was determined.
as §2, with “The same” for “The”, “procedure as that” for “procedure”, “group ⑧” for “groups ⑭, ⑮ and ⑯”, “carried out” for “repeated”, “hydrocortisone” for “cortisone acetate”, “an” for “a steroidal”
(§4) The same procedure as that for Example group ⑧ was carried out except that a physiological saline solution of 10 % Nikkol containing diphenhydramine which was an antihistamine preparation in place of the physiological saline solution of 10 % Nikkol containing VIE-MAN was administered intraperitoneally in such a dose that the amount of the diphenhydramine was 10 mg/kg.
as §4, with “indomethacin” for “diphenhydramine”, “a nonsteroidal anti-inflammatory” for “an antihistamine”, “preparation (antipyretic analgesic antiphlogistic preparation)” for “preparation”
as §3, with “first, four” for “first, five”, “five male” for “five”, “SD” for “SD male”, “(total 20” for “(total 25”, “an antigen- adjuvant-induced” for “an antigen-adjuvant-induced”, “was prepared.” for “was used.”
One out of the four groups was used an Control group, and the procedure for Control group in Example 4 was repeated to determine the average of the swelling ratios as a group unit.

[4] = tested on: stomach (mucosal ulcer in the glandular portion); format: in vivo, rats; details: rat, in vivo
Description: 15 male SD rats weighing 180 to 220 g were used. These rats were fasted for 24 hours, and separated to three groups each consisting of 5 rats.
Then, one group was used as Control group. A physiological saline solution of 10 % Nikkol was administered intraperitoneally, and the rats were sacrificed with ether 16 hours after the administration. The stomach of each rat was removed, and after 10 ml of physiological saline was injected into the stomachs, the stomachs were fixed by immersing them in a 1 % formalin for 10 minutes. Each stomach was dissected along the greater curvatura, and the length (mm) of mucosal ulcer which occurred in the glandular portion was measured under an anatomical microscope (x 10). The average of the ulcer lengths of the five rats was taken as an ulcer index.
as §1, with “One out of the remaining two groups was used as Example group @. The” for “The”, “300 mg/kg, and the ulcer index was determined.” for “10 mg/kg.”
The remaining one group was used as Comparative Example group ⓘ. The procedure for Example group 17 was repeated except that a physiological saline solution of 10 % Nikkol containing indomethacin, which was a nonsteroidal anti-inflammatory preparation (antipyretic analgesic antiphlogistic preparation), in place of the physiological saline solution of 10 % Nikkol was administered intraperitoneally in such a dose that the amount of the indomethacin was 20 mg/kg, and the ulcer index was determined.

## CC(=O)OCC(=O)[C@@]1(O)CC[C@H]2[C@@H]3CCC4=CC(=O)CC[C@]4(C)[C@H]3C(=O)C[C@@]21C [cortisone acetate]
[1]; VIE-MAN 10, 30, 100 mg/kg, depending upon its dose, comparators 10 mg/kg, intraperitoneally
  inhibition activity against carrageenin-induced inflammation: significant activity at and after 0.5 hour
[1]; comparators 10 mg/kg intraperitoneally
  inhibition activity against carrageenin-induced inflammation compared with VIE-MAN: lower than that of VIE-MAN

## CN(Cc1cnc2nc(N)nc(N)c2n1)c1ccc(C(=O)N[C@@H](CCC(=O)O)C(=O)O)cc1 [methotrexate, reference compound]
[2]
  preventive and therapeutical effect on delayed-type hypersensitivity (comparison): VIE-MAN was superior to methotrexate

## C[C@]12CCC(=O)C=C1CC[C@@H]1[C@@H]2[C@@H](O)C[C@@]2(C)[C@H]1CC[C@]2(O)C(=O)CO [hydrocortisone, reference compound]
IgE antibody; Example 3 / Comparative Example 2, VIE-MAN 30 or 100 mg/kg/day, hydrocortisone 10 mg/kg/day, intraperitoneally
  inhibition activity against the IgE antibody production: lower than that of VIE-MAN
IgE antibody; group average, (total 11 days) intraperitoneally, maximum dilution of serum showing positive reaction
  IgE antibody amount in serum, Average value: 473.6
[3]; Example 4, Fig. 3
  inhibition activity against antigen-adjuvant-induced inflammations: no inhibition activity was found

## CN(C)CCOC(c1ccccc1)c1ccccc1 [diphenhydramine, reference compound]
[3]; Example 4, Fig. 3
  inhibition activity against antigen-adjuvant-induced inflammations: no inhibition activity was found

## Cc1c(C)c2c(c(C)c1OC1OC(CO)C(O)C(O)C1O)CCC(C)(CCCC(C)CCCC(C)CCCC(C)C)O2 (racemic) [VIE-GAL, dl-a-tocopheryl-,B-galactoside]
[3]; Example 5, Fig. 4, 10 mg/kg
  inhibition activity against antigen-adjuvant-induced inflammations: also superior
[3]; Example 5, Fig. 4, 0.5 hour after administration of antigen and adjuvant, versus Control group
  average of the swelling ratios: significantly lower than that of the swelling ratios of Control group
[4]
  side effect on the digestive system: nearly similar results to that of the test on VIE-MAN
